Experimental data: patent US20230348493A1, “COMPOUND FOR ADJUSTING ACTIVITY OF NMDA RECEPTOR, AND PHARMACEUTICAL COMPOSITION AND USE THEREOF” (BEIJING GREATWAY PHARMACEUTICAL TECHNOLOGY CO., LTD., priority 2020, published 2023)
Where two headings read alike, the source gives them in different places.

What was measured:
NMDA receptor [1] = biological target: T1, NMDA receptor (Rattus norvegicus, UniProt P35439); test: Inhibition of [3H]-MK-801 binding to rat crude synaptosomes (receptor ligand binding assay); settings: affinity on NMDA; [3H]-MK-801 10 nM, rat prefrontal cortex and hippocampus crude synaptosomes; read-out: IC50
T1 construct: After the rats were decapitated, the prefrontal cortex and hippocampus were rapidly separated on ice; from tissue; host or cells: SD male rat prefrontal cortex and hippocampus, crude synaptosomes
Experimental: The affinity of the tested compounds on NMDA receptor was researched by receptor ligand binding assays.
Ten SD male rats of SPF grade were ordered and acclimated for 7 days for future use.
(§1) After the rats were decapitated, the prefrontal cortex and hippocampus were rapidly separated on ice and weighed, 10 volumes of 50 mM Tris-HCl buffer (50 mM Tris-HCl, 5 mM MgCl2·6H2O, 1 mM EDTA, 0.5% (W/V) BSA, 1 mM PMSF, 0.32 M sucrose, pH 7.4) was added, and the mixture was homogenized for five times at 1500 revolutions/min with 30 s each time. A homogenate was centrifuged for 10 min at 1000×g, and a supernatant was taken and centrifuged for 10 min at 40,000×g, the precipitates were collected, re-suspended with volumes of Tris-HCl buffer, incubated at 37° C. for 10 min, and centrifuged for 10 min at 40,000×g, finally the precipitates were re-suspended with the above buffer, aliquoted and stored at −80° C. for later use.
(2) Detection of Inhibitory Function of Tested Medicines on Binding of Crude Synaptosomes in Rats to [^3H]-MK-801
50 μg of rat crude synaptosomal proteins was added to all tubes respectively. A volume of 50 μl of MK-801 (dizocilpine) was added to a non-specific binding tube to achieve a final concentration of 100 μM, and the materials were reacted for 15 min in advance. 20 μL of control drug at corresponding concentration was added to the test tube for reaction for 15 min. A volume of 30 μl of labeled ligand [^3H]-MK-801 was successively added to all tubes to achieve a final concentration of 10 nM. All reaction tubes were supplemented to a volume of 200 μl with 50 mM Tris-HCl buffer (50 mM Tris-HCl, 5 mM MgCl2·6H2O, 1 mM EDTA, 0.5% (WN) BSA, 0.1% NaN3, pH 7.4). A reaction was carried out at 37° C. for 10 min. A type-49 glass fiber filter membrane was prepared and a sample was applied at the same time. The filter membrane was placed in a multi-head cell collector, and a reaction system was subjected to suction filtration under negative pressure and washed with an ice-cold 50 mM Tris-HCl buffer, 10 ml each time, for a total of 5 times. After suction drying, 1 ml of scintillation liquid was added to the filter membrane, the filter membrane was placed on a shaker for shaking for 1.5 h and then placed in a liquid scintillation counter on the next day to determine the radioactive intensity.
GraphPad5.0 software was used to analyze the data, and the percentage of competitive inhibition was calculated through nonlinear fitting, wherein:
Percentage of competitive inhibition %=((total binding tube cpm−compound cpm)/(total binding tube cpm−non-specific binding tube cpm))×100%;
Specific binding amount=total binding amount−non-specific binding amount, wherein each binding site was determined by double compound tubes.

NMDA receptor [2] = biological target: T1, NMDA receptor; test: NMDA receptor agonistic properties in rat crude synaptosomal proteins (maximum [3H]-MK-801 binding vs 1 mM glycine); format: biochemical; settings: maximum [3H]-MK-801 binding % relative to 1 mM glycine; 50 μM glutamic acid
Experimental: as §1
(3) Detection of Influence of Tested Medicines on NMDA Receptor Agonistic Properties in Rat Crude Synaptosomal Proteins
100 μg of rat crude synaptosomal proteins was added to all tubes respectively. 50 μl of 5,7-dichlorokynurenic acid was added to a non-specific binding tube to achieve a final concentration of 10 μM. All tubes were preloaded with 50 μM of glutamic acid, and the materials were reacted for 15 min in advance. 20 μL of control drug at corresponding concentration was added to the test tube, and then reacted for 15 min. 1 mM glycine was added to the maximum reaction tube. A volume of 30 μl of labeled ligand [^3H]-MK-801 was successively added to all tubes to achieve a final concentration of 10 nM, and reacted for 15 min. All reaction tubes were supplemented to a volume of 500 μl with 50 mM Tris-HCl buffer (50 mM Tris-HCl, 5 mM MgCl2·6H2O, 1 mM EDTA, 0.5% (WN) BSA, 0.1% NaN3, pH 7.4). A reaction was carried out at 37° C. for 15 min. A type-49 glass fiber filter membrane was prepared and a sample was applied at the same time. The filter membrane was placed in a multi-head cell collector, and the reaction system was subjected to suction filtration under negative pressure and washed with an ice-cold 50 mM Tris-HCl buffer, 10 ml each time, for a total of 5 times. After suction drying, 1 ml of scintillation liquid was added to the filter membrane, the filter membrane was placed on the shaker for shaking for 1.5 h and then placed in the liquid scintillation counter on the next day to determine the radioactive intensity.
In an agonistic experiment, maximum [^3H]-MK-801 binding %=((tested compounds cpm−5,7 dichlorokynurenic acid cpm)/(1 mM glycine cpm−5,7 dichlorokynurenic acid cpm))×100%.

[3] = In-vivo metabolism (pharmacokinetic) study in rats, oral / tail intravenous; settings: rat, plasma; for bioavailability: male, SD, oral 10 mg/kg vs intravenous 1 mg/kg, rats; for AUC(0-t) / Cmax: male SD rats
Experimental: The pharmacokinetic parameters such as exposure of plasma concentrations of the compounds of examples were evaluated by oral/tail intravenous injection model tests in rats in order to evaluate the in-vivo metabolic stability in rats.
The male SD rats weighing 200±20 g and being SPF grade were used in this experiment and purchased from SPF.
Preparation of intravenous solution: 1 mg of each tested medicine was weighed accurately, and a volume was metered to 5 mL with 0.9% sodium chloride solution to prepare 0.2 mg/mL. A dose volume was 1 mL for per 200 g of weight, and the dose was 1 mg for per 1 kg of weight based on the concentration conversion.
Preparation of intragastric solution: 10 mg of each tested medicine was accurately weighed, and a volume was metered to 10 mL with 0.9% sodium chloride solution to prepare 1 mg/mL of the solution. A dose volume was 2 mL for per 200 g of weight, and the dose was 10 mg for per 1 kg of weight based on the concentration conversion.
Rats were randomly divided into 8 groups, 6 rats were in each group, oral gavage administration and tail intravenous administration were performed according to the above doses. About 0.2 mL of orbital blood was collected before administration and at 2 min, 5 min, 15 min, 30 min, 1 h, 2 h, 3 h, 4 h and 6 h after administration, respectively, and centrifuged at 3000 rpm for 10 min at 4° C., and a supernatant was taken for LC/MS/MS determination. A DAS pharmacokinetics program was used to analyze the measured data and calculate the main pharmacokinetic parameters.

rats = test: Forced swimming test in rats; format: in vivo; settings: Rattus norvegicus, Po
Experimental: Pharmacodynamic evaluation was performed by the forced swimming tests in rats. The experimental animals were male SD rats weighing 150 g-180 g and being SPF grade, and acclimated for one week after purchase, and then subjected to forced swimming tests, the rats need be fasted for 12 hours before the tests. The compounds of examples were dissolved with normal saline, and blank control group (normal saline) and example compound administration group were established. 8-10 rats were provided for each group. On the day before the tests, the rats were placed in a glass cylinder with a height of 40 cm, an inner diameter of 18 cm, and a water depth of 23 cm for pre-swimming for 15 min, and a water temperature was 28° C. After the pre-swimming the rats were removed, wiped with a dry cloth, and dried with an electrical heater, then returned to a rearing cage, and administered. A formal forced swimming test was performed on the next day for a total of 5 min. The accumulated immobility time within 5 min was recorded, and a second forced swimming test was performed on the seventh day; the criteria for determining immobility were that the rats stopped struggling in the water, were in a floating state, and had only slight limb movements to keep the head floating on the water surface. The results are shown in Table 4, and the experimental data were statistically analyzed by GraphPad Prism 5.0 software.

[4] = 48 h, Day 2, *P<0.05, **P<0.01 compared with the control group, read-out: Reduction percentage (%) of floating time, Day 2
[5] = 168 h, Day 7, *P<0.05, **P<0.01 compared with the control group, read-out: Reduction percentage (%) of floating time, Day 7

SMILES	IC50 (NMDA receptor [1])	Maximum agonistic efficacy (%) (NMDA receptor [2])	bioavailability [3]	AUC(0-t) ([3]; Intravenous injection, 1 mg/kg)	Cmax ([3]; Intravenous injection, 1 mg/kg)	AUC(0-t) ([3]; Oral, 10 mg/kg)	Cmax ([3]; Oral, 10 mg/kg)	inhibition in vivo at 0.1 mg/kg (rats; [4])	inhibition in vivo at 0.1 mg/kg (rats; [5])
C[C@@H](O)[C@H](N)C(=O)N1CC2(C1)NCCS2.Cl [A-006]	0.44 nM	32%	21.2%	16500 ng·h/mL	11600 ng/mL	35000 ng·h/mL	18400 ng/mL	36.4%	22.2%
Cl.N[C@@H](CO)C(=O)N1CC2(C1)NCCS2 [A-007]	0.89 nM	56%	–	–	–	–	–	35.1%	32.4%
CC(C)[C@H](N)C(=O)N1CC2(C1)NCCS2.Cl [A-008]	0.89 nM	35%	–	–	–	–	–	54.9%	57.3%
C[C@@H](O)[C@H](N)C(=O)N1CCC2(C1)NCCS2.Cl (some centres unmarked) [A-020]	0.25 nM	42%	–	–	–	–	–	51.8%	59.3%
C[C@@H](O)[C@H](N)C(=O)N1CCC2(CC1)NCCS2.Cl [A-034]	0.89 nM	25%	–	–	–	–	–	71.9%	60.1%
CC(=O)N1CCSC12CN(C(=O)[C@@H](N)[C@@H](C)O)C2.Cl [A-066]	0.35 nM	29%	54.5%	1380 ng·h/mL	1690 ng/mL	7560 ng·h/mL	2080 ng/mL	68%	55.3%
CC(=O)N1CCSC12CCN(C(=O)[C@@H](N)[C@@H](C)O)CC2.Cl [A-082]	0.89 nM	45%	19.6%	6850 ng·h/mL	18300 ng/mL	13400 ng·h/mL	5580 ng/mL	–	–
CC(C)C(=O)N1CCSC12CN(C(=O)[C@@H](N)[C@@H](C)O)C2.Cl [A-098]	0.98 nM	28%	19.1%	952 ng·h/mL	1090 ng/mL	1820 ng·h/mL	767 ng/mL	64.5%	13.9%
C[C@@H](O)[C@H](N)C(=O)N1CC2(C1)N[C@H](C(N)=O)CS2.Cl [A-258]	0.33 nM	21%	27.3%	4180 ng·h/mL	3630 ng/mL	11400 ng·h/mL	4910 ng/mL	74.8%	56.4%
CC(C)[C@H](N)C(=O)N1CC2(C1)N[C@H](C(N)=O)CS2.Cl [A-260]	0.26 nM	26%	74.6%	1450 ng·h/mL	2240 ng/mL	10800 ng·h/mL	6210 ng/mL	31.6%	15.5%
C[C@@H](O)[C@H](N)C(=O)N1CCC2(CC1)N[C@H](C(N)=O)CS2.Cl [A-274]	0.28 nM	55%	62.7%	1630 ng·h/mL	2480 ng/mL	3350 ng·h/mL	1880 ng/mL	–	–
C[C@@H](O)[C@H](N)C(=O)N1CCC2(C1)N[C@H](C(=O)N1CCCCC1)CS2.Cl (some centres unmarked) [A-421]	0.38 nM	45%	–	–	–	–	–	–	–
C[C@@H](O)[C@H](N)C(=O)N1CCC2(C1)N[C@H](C(=O)N1CCN(C)CC1)CS2.Cl (some centres unmarked) [A-429]	0.66 nM	57%	–	–	–	–	–	–	–
C[C@@H](O)[C@H](N)C(=O)N1CCC2(CC1)N[C@H](C(=O)N1CCCCC1)CS2.Cl [A-437]	0.33 nM	42%	–	–	–	–	–	–	–
C[C@@H](O)[C@H](N)C(=O)N1CCC2(CC1)N[C@H](C(=O)N1CCSCC1)CS2.Cl [A-449]	0.47 nM	38%	–	–	–	–	–	–	–
CN1CCN(C(=O)[C@@H]2CSC3(CCCN(C(=O)[C@@H](N)CO)C3)N2)CC1.Cl (some centres unmarked) [A-463]	0.52 nM	59%	–	–	–	–	–	–	–
Cl.N[C@@H](CO)C(=O)N1CC2(C1)N[C@H](C(=O)N1CCNCC1)CS2 [A-470]	0.35 nM	33%	–	–	–	–	–	–	–
Cl.N[C@@H](CO)C(=O)N1CCC2(CC1)N[C@H](C(=O)N1CCNCC1)CS2 [A-476]	0.96 nM	56%	–	–	–	–	–	–	–
